Results as given in patent US9862707B2, “TrkA kinase inhibitors, compositions and methods thereof” (Merck Sharp & Dohme Corp., priority 2014, dated 2018).

Biological target: human TrkA receptor (Homo sapiens (Human), UniProt P04629)
Assay: TrkA functional activity, DiscoverX PathHunter assay
Type: cell-based
Conditions: U2OS cells expressing human TrkA-PK, Shc1-EA and p75NTR; compound 1 h, then NGF at ~80% of maximal response for 3 h; luminescence

Sequence of human TrkA receptor (P04629 33-796): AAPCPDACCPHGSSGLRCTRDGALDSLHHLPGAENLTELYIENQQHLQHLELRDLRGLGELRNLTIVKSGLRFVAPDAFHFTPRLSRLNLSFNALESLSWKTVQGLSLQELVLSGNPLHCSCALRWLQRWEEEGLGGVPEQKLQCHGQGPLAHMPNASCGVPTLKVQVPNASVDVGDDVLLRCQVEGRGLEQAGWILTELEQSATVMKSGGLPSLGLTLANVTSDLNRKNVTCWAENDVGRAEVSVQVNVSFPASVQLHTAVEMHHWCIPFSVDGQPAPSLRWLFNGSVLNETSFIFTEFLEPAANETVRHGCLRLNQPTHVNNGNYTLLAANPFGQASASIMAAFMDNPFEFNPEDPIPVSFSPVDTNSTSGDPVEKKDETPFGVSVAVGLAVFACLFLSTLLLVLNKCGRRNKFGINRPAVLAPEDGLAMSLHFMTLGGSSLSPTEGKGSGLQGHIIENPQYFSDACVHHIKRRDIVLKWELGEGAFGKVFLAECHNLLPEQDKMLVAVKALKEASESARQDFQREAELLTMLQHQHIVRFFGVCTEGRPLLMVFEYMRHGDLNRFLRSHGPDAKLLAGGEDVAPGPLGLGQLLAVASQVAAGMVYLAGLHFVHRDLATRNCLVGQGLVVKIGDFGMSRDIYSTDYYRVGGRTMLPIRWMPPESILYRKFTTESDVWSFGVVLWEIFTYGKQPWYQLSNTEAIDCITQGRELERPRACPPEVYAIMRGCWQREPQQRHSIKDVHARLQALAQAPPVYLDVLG

| Compound | IC50 [nM] |
| --- | --- |
| Cc1cc(-n2nc3ccc(CO)cc3c2NC(=O)c2cc(-c3ncccn3)c(C(F)(F)F)cc2F)n[nH]1 [Compound 15, 2-fluoro-N-[5-(hydroxymethyl)-2-(5-methyl-1H-pyrazol-3-yl)-2H-indazol-3-yl]-5-pyrimidin-2-yl-4-(trifluoromethyl)benzamide] | 74 |
| CC(N)c1ccc2c(NC(=O)c3cc(-c4ncccn4)c(C(F)(F)F)cc3F)n(-c3ccccc3)nc2c1 (single isomer, unassigned) [Compound 70, (R or S)-N-{6-[1-aminoethyl]-2-phenyl-2H-indazol-3-yl}-2-fluoro-5-pyrimidin-2-yl-4-(trifluoromethyl)benzamide] | 14 |
| O=C(Nc1c2ccc(CO)cc2nn1-c1ccccc1)c1cc(-c2ncccn2)c(C(F)(F)F)cc1Cl [Compound 16, 2-chloro-N-[6-(hydroxymethyl)-2-phenyl-2H-indazol-3-yl]-5-pyrimidin-2-yl-4-(trifluoromethyl)benzamide] | 7.9 |
| Cc1ccccc1-n1nc2cc(C(N)=O)ccc2c1NC(=O)c1cc(-c2ncccn2)c(C(F)(F)F)cc1F [Compound 93, 3-({[2-fluoro-5-pyrimidin-2-yl-4-(trifluoromethyl)phenyl]carbonyl}amino)-2-(2-methylphenyl)-2H-indazole-6-carboxamide] | 32 |
| NC(=O)c1cccc2c(NC(=O)c3cc(-c4ncccn4)c(C(F)(F)F)cc3F)n(-c3ccccc3)nc12 [Compound 89, 3-({[2-fluoro-5-pyrimidin-2-yl-4-(trifluoromethyl)phenyl]carbonyl}amino)-2-phenyl-2H-indazole-7-carboxamide] | 11 |
| O=C(Nc1c2ncccc2nn1-c1cccc(CO)c1)c1cc(-c2ncccn2)c(C(F)(F)F)cc1F [Compound 3, 2-Fluoro-N-(2-(3-(hydroxymethyl)phenyl)-2H-pyrazolo[4,3-b]pyridin-3-yl)-5-(pyrimidin-2-yl)-4-(trifluoromethyl)benzamide] | 122 |

Stronger by IC50, values ahead:

| IC50 [nM] | Compound |
| --- | --- |
| 6.5 | Cn1ccc(-c2cc(C(=O)Nc3c4ccc(CNCCO)cc4nn3-c3ccccc3)c(F)cc2C(F)(F)F)n1 [Compound 72, 2-fluoro-N-(6-{[(2-hydroxyethyl)amino]methyl}-2-phenyl-2H-indazol-3-yl)-5-(1-methyl-1H-pyrazol-3-yl)-4-(trifluoromethyl)benzamide] |
| 2.8 | O=C(Nc1c2ccc(C(O)C(F)(F)F)cc2nn1-c1ccccc1)c1cc(-c2ncccn2)c(C(F)(F)F)cc1F (single isomer, unassigned) [Compound 52, (R or S)-2-Fluoro-N-{2-phenyl-6-[(1S)-2,2,2-trifluoro-1-hydroxyethyl]-2H-indazol-3-yl}-5-pyrimidin-2-yl-4-(trifluoromethyl)benzamide, isomers A and B] |
| 3.3 | NC(=O)c1cnc2c(NC(=O)c3cc(-c4ccccn4)c(C(F)(F)F)cc3Cl)n(-c3ccccc3)nc2c1 [Compound 85, 3-({[2-chloro-5-pyridin-2-yl-4-(trifluoromethyl)phenyl]carbonyl}amino)-2-phenyl-2H-pyrazolo[4,3-b]pyridine-6-carboxamide] |
| 2.2 | O=C(Nc1c2ccc(CCO)cc2nn1-c1ccccc1)c1cc(-c2ncccn2)c(C(F)(F)F)cc1F [Compound 60, 2-Fluoro-N-(6-(2-hydroxyethyl)-2-phenyl-2H-indazol-3-yl)-5-(pyrimidin-2-yl)-4-(trifluoromethyl)benzamide] |
| 2.7 | Cn1ccc(-c2cc(C(=O)Nc3c4ccc(C(N)=O)cc4nn3-c3ccccc3)ccc2C(F)(F)F)n1 [Compound 82, 3-({[3-(1-methyl-1H-pyrazol-3-yl)-4-(trifluoromethyl)phenyl]carbonyl}amino)-2-phenyl-2H-indazole-6-carboxamide] |
| 7.1 | CC(N)c1ccc2c(NC(=O)c3cc(-c4ncccn4)c(C(F)(F)F)cc3F)n(-c3ccccc3)nc2c1 (single isomer, unassigned) [Compound 69, (R or S)-N-{6-[1-aminoethyl]-2-phenyl-2H-indazol-3-yl}-2-fluoro-5-pyrimidin-2-yl-4-(trifluoromethyl)benzamide] |
